Tested on: 301 cancer cell lines from different tumor types (OncoPanel; HD Biosciences)
Assay: 2D cell viability inhibition assay (CellTiter-Glo) in cancer cell line panel
Type: cell-based
Parameters: key to AUC: AUC as fraction of the no-inhibition area (dose range × 0–100 % of control)
Conditions: for Emax: in %
Procedure: In a larger screening study, compound 1 was evaluated across a broad cancer cell line panel (OncoPanel; HD Biosciences) composed of 301 cancer cell lines from different tumor types.
2D cell viability inhibition assays were performed in multiwell plates seeded with cells from the panel. After seeding, the plates were cultured overnight in a humidified incubator at 37° C. to promote adherence. Assays were initiated in individual wells by adding either DMSO as a vehicle control, growth media as a blank, or serially diluted compound 1 (10 μM to 0.0005 μM with 1:3 serial dilution). Cultures were incubated for 168 hours after which the number of viable cells in each test well was assessed using the CellTiter-Glo® Luminescent Cell Viability Assay. Luminescence readouts were performed using an EnVision® Multilabel Reader and the compound 1 readouts were normalized to the DMSO control readouts, expressed as a percent of the control. Outliers were flagged out by visual inspection. Percent of control was plotted against the corresponding compound 1 concentration and the absolute IC50 value was determined using four-parameter logistic non-linear regression as the concentration where inhibition was 50% of the control. For maximum inhibition <50%, the absolute IC50 was reported as >10. In addition to EC50 and IC50, AUC was determined and was normalized to the area corresponding to theoretical no-inhibition (the rectangular area defined by the compound dose range and 0 to 100 in y). Emax was recorded as the minimum in y with the compound dose range. For those cell lines where Emax>40, EC50 was manually set to 10 μM. A hierarchical clustering algorithm based on Euclidean distance between the standardized input values and “Ward.D” method as implemented in R hclust function was used to visualize the compound 1 cellular potency data. The sensitive/moderate/resistant calls for each cell line was determined by visually inspecting the resulting clustering dendrogram. All the analyses were done in R Core Team.

[1] = Homo sapiens, TE-5, TE5 cell line
[2] = Homo sapiens, TE-6, TE6 cell line
[3] = Homo sapiens, TE-9, TE9 cell line
[4] = Homo sapiens, TE-10, TE10 cell line
[5] = Homo sapiens, TE-11, TE11 cell line
[6] = Homo sapiens, TF-1, TF1 cell line
[7] = Homo sapiens, THP-1, THP1 cell line
[8] = Homo sapiens, TOV112D, TOV112D cell line
[9] = Homo sapiens, TT, T.T cell line
[10] = Homo sapiens, U2OS, U2OS cell line
[11] = Homo sapiens, U-87 MG, U87MG cell line
[12] = Homo sapiens, U-937, U937 cell line
[13] = Homo sapiens, UMUC3, UMUC3 cell line
[14] = Homo sapiens, WM 266-4, WM2664 cell line
[15] = Homo sapiens, WM-115, WM115 cell line
[16] = Homo sapiens, WSUDLCL2, WSUDLCL2 cell line

Question: With `CC(C)c1ccc(N(C)c2ccc3c(c2)OCC[C@H]3CNc2cnccc2C(=O)O)cc1` [Compound 1, 3-({[(4R)-7-{methyl[4-(propan-2-yl)phenyl]amino}-3,4-dihydro-2H-1-benzopyran-4-yl]methyl}amino)pyridine-4-carboxylic acid] as the molecule, how does the IC50 (Homo sapiens, TALL-1, TALL1 cell line) read?
Answer: 1.8 nM

Question: And the EC50 [1]?
Answer: 6.64 nM

Question: And the IC50 [1]?
Answer: 8.47 nM

Question: And the EC50 [2]?
Answer: 4.83 nM

Question: What about the IC50 [2] of the same molecule?
Answer: 6.68 nM

Question: What about the EC50 [3] of the same molecule?
Answer: 3.75 nM

Question: And the IC50 [3]?
Answer: 6.89 nM

Question: And the EC50 [4]?
Answer: 9.3 nM

Question: And the IC50 [4]?
Answer: 16.3 nM

Question: What about the EC50 [5] of the same molecule?
Answer: 3.85 nM

Question: And the IC50 [5]?
Answer: 4.28 nM

Question: What about the IC50 (Homo sapiens, TE-15, 168 h, TE15, oesophagus, squamous cell carcinoma, 168 hours) of the same molecule?
Answer: > 10000 nM

Question: What about the EC50 [6] of the same molecule?
Answer: 1.58 nM

Question: And the IC50 [6]?
Answer: 2.59 nM

Question: What about the EC50 [7] of the same molecule?
Answer: 4.92 nM

Question: And the IC50 [7]?
Answer: 6.15 nM

Question: What about the EC50 [8] of the same molecule?
Answer: 4.26 nM

Question: What about the IC50 [8] of the same molecule?
Answer: 6.23 nM

Question: And the EC50 [9]?
Answer: 4.37 nM

Question: And the IC50 [9]?
Answer: 6.75 nM

Question: And the EC50 [10]?
Answer: 7.71 nM

Question: What about the IC50 [10] of the same molecule?
Answer: 9.01 nM

Question: And the EC50 [11]?
Answer: ≥ 10000 nM

Question: And the IC50 [11]?
Answer: 14.7 nM

Question: What about the EC50 [12] of the same molecule?
Answer: 2.73 nM

Question: What about the IC50 [12] of the same molecule?
Answer: 2.55 nM

Question: And the IC50 (Homo sapiens, UACC-812, 168 h, UACC812, breast, ductal carcinoma, 168 hours)?
Answer: > 10000 nM

Question: And the EC50 [13]?
Answer: 21.9 nM

Question: And the IC50 [13]?
Answer: 39.5 nM

Question: And the IC50 (Homo sapiens, VCaP, 168 h, prostate, adenocarcinoma)?
Answer: > 10000 nM

Question: And the EC50 [14]?
Answer: ≥ 10000 nM

Question: And the IC50 [14]?
Answer: 27.5 nM

Question: What about the EC50 [15] of the same molecule?
Answer: 2.5 nM

Question: What about the IC50 [15] of the same molecule?
Answer: 478 nM

Question: What about the EC50 [16] of the same molecule?
Answer: 4.21 nM

Question: What about the IC50 [16] of the same molecule?
Answer: 5.67 nM

Question: And the AUC (J82 cell line)?
Answer: 0.6749

Question: And the AUC (JEKO1 cell line)?
Answer: 0.1172

Question: And the AUC (JIMT1 cell line)?
Answer: 0.5519

Question: And the AUC (JURKAT cell line)?
Answer: 0.1171

Question: What about the Emax (JURKAT cell line) of the same molecule?
Answer: 0.212

Question: And the AUC (K562 cell line)?
Answer: 0.275

Question: What about the AUC (KALS1 cell line) of the same molecule?
Answer: 0.6559

Question: What about the AUC (KARPAS422 cell line) of the same molecule?
Answer: 0.329

Question: What about the Emax (KARPAS422 cell line) of the same molecule?
Answer: 8.084

Question: What about the AUC (KASUMI1, haematopoietic and lymphoid tissue, acute myeloid leukaemia, 168 hours) of the same molecule?
Answer: 0.8823

Question: What about the AUC (KATOIII cell line) of the same molecule?
Answer: 0.49

Question: What about the AUC (KG1, haematopoietic and lymphoid tissue, acute myeloid leukaemia, 168 hours) of the same molecule?
Answer: 0.9592

Question: And the AUC (KM12 cell line)?
Answer: 0.3482

Question: And the Emax (KM12 cell line)?
Answer: 12.24

Question: What about the AUC (KMS11 cell line) of the same molecule?
Answer: 0.3918

Question: And the Emax (KMS11 cell line)?
Answer: 9.983

Question: And the AUC (KNS62 cell line)?
Answer: 0.4761

Question: And the Emax (KNS62 cell line)?
Answer: 18.84

Question: What about the AUC (KNS81 cell line) of the same molecule?
Answer: 0.6309

Question: And the IC50 (KNS81 cell line)?
Answer: > 10000 nM

Question: What about the AUC (KU1919 cell line) of the same molecule?
Answer: 0.3956

Question: What about the Emax (KU1919 cell line) of the same molecule?
Answer: 14.57

Question: What about the AUC (KURAMOCHI, ovary, undifferentiated carcinoma, 168 hours) of the same molecule?
Answer: 0.8742

Question: What about the AUC (KYSE30 cell line) of the same molecule?
Answer: 0.4434

Question: And the Emax (KYSE30 cell line)?
Answer: 38.59

Question: What about the AUC (KYSE70, oesophagus, squamous cell carcinoma, 168 hours) of the same molecule?
Answer: 0.6942

Question: And the AUC (KYSE150 cell line)?
Answer: 0.3052

Question: What about the AUC (KYSE270 cell line) of the same molecule?
Answer: 0.3062

Question: What about the AUC (KYSE410 cell line) of the same molecule?
Answer: 0.4156

Question: And the Emax (KYSE410 cell line)?
Answer: 21.4639

Question: And the AUC (KYSE510 cell line)?
Answer: 0.1998

Question: And the AUC (LNCAP cell line)?
Answer: 0.3974

Question: What about the AUC (LOUCY cell line) of the same molecule?
Answer: 0.188

Question: What about the EC50 (LOUCY cell line) of the same molecule?
Answer: 2.47 nM

Question: And the IC50 (LOUCY cell line)?
Answer: 2.47 nM

Question: What about the AUC (LOVO cell line) of the same molecule?
Answer: 0.6362

Question: What about the AUC (LS411N cell line) of the same molecule?
Answer: 0.3851

Question: What about the Emax (LS411N cell line) of the same molecule?
Answer: 6.415

Question: And the AUC (LU65 cell line)?
Answer: 0.4091

Question: What about the Emax (LU65 cell line) of the same molecule?
Answer: 12

Question: And the AUC (LU99, lung, large cell carcinoma, 168 hours)?
Answer: 0.79

Question: And the AUC (LUDLU1 cell line)?
Answer: 0.5307

Question: What about the EC50 (LUDLU-1, LUDLU1 cell line) of the same molecule?
Answer: 12.6 nM

Question: And the IC50 (LUDLU-1, LUDLU1 cell line)?
Answer: 25.8 nM

Question: And the AUC (MALME3M, skin, NS, 168 hours)?
Answer: 0.9867

Question: And the AUC (MC116 cell line)?
Answer: 0.2527

Question: And the AUC (MCF7 cell line)?
Answer: 0.6592

Question: And the AUC (MDAMB157, breast, ductal carcinoma, 168 hours)?
Answer: 0.8362

Question: And the AUC (MDAMB175VII, breast, ductal carcinoma, 168 hours)?
Answer: 0.7385

Question: And the AUC (MDAMB231, breast, NS, 168 hours)?
Answer: 0.7262

Question: What about the AUC (MDAMB361, breast, NS, 168 hours) of the same molecule?
Answer: 1.117

Question: What about the AUC (MDAMB415, breast, NS, 168 hours) of the same molecule?
Answer: 0.9413

Question: And the AUC (MDAMB436, breast, NS, 168 hours)?
Answer: 0.8438

Question: And the AUC (MDAMB453 cell line)?
Answer: 0.4524

Question: And the Emax (MDAMB453 cell line)?
Answer: 21.95

Question: What about the AUC (MDAMB468, breast, NS, 168 hours) of the same molecule?
Answer: 0.6972

Question: And the AUC (MESSA cell line)?
Answer: 0.4933

Question: And the Emax (MESSA cell line)?
Answer: 24.22

Question: What about the AUC (MEWO, skin, NS, 168 hours) of the same molecule?
Answer: 0.7237

Question: What about the AUC (MIAPACA2 cell line) of the same molecule?
Answer: 0.3322

Question: And the Emax (MIAPACA2 cell line)?
Answer: 9.711

Question: And the AUC (MKN1 cell line)?
Answer: 0.3945

Question: And the AUC (MKN45 cell line)?
Answer: 0.4427

Question: And the Emax (MKN45 cell line)?
Answer: 19.77

Question: What about the AUC (MOLT4 cell line) of the same molecule?
Answer: 0.1376

Question: And the Emax (MOLT4 cell line)?
Answer: 0.6048

Question: What about the AUC (MPP89 cell line) of the same molecule?
Answer: 0.6384

Question: And the IC50 (MPP89 cell line)?
Answer: > 10000 nM

Question: What about the AUC (MV411 cell line) of the same molecule?
Answer: 0.2163

Question: What about the AUC (NAMALWA cell line) of the same molecule?
Answer: 0.2431

Question: And the EC50 (NAMALWA cell line)?
Answer: 3.27 nM

Question: And the IC50 (NAMALWA cell line)?
Answer: 3.21 nM

Question: What about the IC50 (NCI-H1435, 168 h, NCIH1435, lung, non-small cell carcinoma, 168 hours) of the same molecule?
Answer: > 10000 nM

Question: What about the EC50 (NCI-H2023, NCIH2023 cell line) of the same molecule?
Answer: 2.84 nM

Question: And the IC50 (NCI-H2023, NCIH2023 cell line)?
Answer: 3.03 nM

Question: And the EC50 (NCI-H2172, NCIH2172 cell line)?
Answer: ≥ 10000 nM

Question: And the IC50 (NCI-H2172, NCIH2172 cell line)?
Answer: 133 nM
